Measured values from PubChem BioAssay (NCI).
Several values for one entry are separate records, joined by “and”; a condition that tells them apart may be missing. Equal entries are not always repeated.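 Where inhibition never reached the appropriate level, the endpoint shown equals the highest concentration tested. Otherwise, values were interpolated linearly from a five-concentration, 48-hour dose response in 96-well plates. At the GI50, growth is halved. TGI marks complete inhibition of growth.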

How the values were obtained:
Assay in all cases: NCI anticancer screen, dose series, 48 h
NCI-H522 lung = test system: NCI-H522 lung
NCI/ADR-RES ovarian = test system: NCI/ADR-RES ovarian
SK-MEL-5 melanoma = test system: SK-MEL-5 melanoma
IGROV1 ovarian = test system: IGROV1 ovarian
OVCAR-4 ovarian = test system: OVCAR-4 ovarian
SK-MEL-2 melanoma = test system: SK-MEL-2 melanoma
OVCAR-8 ovarian = test system: OVCAR-8 ovarian
PC-3 prostate = test system: PC-3 prostate
UACC-62 melanoma = test system: UACC-62 melanoma
A498 renal = test system: A498 renal

| SMILES | GI50 (NCI-H522 lung) | TGI (NCI-H522 lung) | GI50 (NCI/ADR-RES ovarian) | TGI (NCI/ADR-RES ovarian) | GI50 (SK-MEL-5 melanoma) | TGI (SK-MEL-5 melanoma) | GI50 (IGROV1 ovarian) | TGI (IGROV1 ovarian) | GI50 (OVCAR-4 ovarian) | TGI (OVCAR-4 ovarian) | GI50 (SK-MEL-2 melanoma) | TGI (SK-MEL-2 melanoma) | GI50 (OVCAR-8 ovarian) | TGI (OVCAR-8 ovarian) | GI50 (PC-3 prostate) | TGI (PC-3 prostate) | GI50 (UACC-62 melanoma) | TGI (UACC-62 melanoma) | GI50 (A498 renal) | TGI (A498 renal) |
| --- | --- | --- | --- | --- | --- | --- | --- | --- | --- | --- | --- | --- | --- | --- | --- | --- | --- | --- | --- | --- |
| CC(=O)C1=C(O)C=C2Oc3c(C(=O)/C=C/c4cc(C(F)(F)F)cc(C(F)(F)F)c4)c(O)c(C)c(O)c3[C@]2(C)C1=O | 0.38 µM | 1.22 µM | 0.5 µM | 2.93 µM | 0.444 µM | 1.27 µM | 0.671 µM | 8.83 µM | 0.815 µM | 11.3 µM | 0.448 µM | 1.27 µM | 0.496 µM | 1.91 µM | 0.564 µM | 2.3 µM | 0.436 µM | 1.27 µM | 0.457 µM | 1.42 µM |
| C(=Nc1ccccc1)C1CCCC[N-]1.C(=Nc1ccccc1)C1CCCC[N-]1.[Cu+2].[O-][Cl+3]([O-])([O-])O (centres undefined) | 13.3 µM | 52.1 µM | 8.33 µM | 29.7 µM | 8.64 µM | 27.7 µM | 14 µM | 47.8 µM | 26 µM | 84.4 µM | 15.8 µM | 40.9 µM | > 39.7 µM | > 95.2 µM | 12.3 µM | 34.2 µM | 5 µM | 22.8 µM | 18.1 µM | 44.9 µM |
| COc1ccc(-c2[nH]ncc2-c2cc3c(c(OC)c2)OCC(=O)N3)cc1 | 0.247 µM | 6.33 µM | 1.43 µM | 29.2 µM | 0.595 µM | 12.8 µM | 0.674 µM | > 100 µM | 2.91 µM | 77.9 µM | 0.564 µM | 81.6 µM | 1.17 µM | > 50.1 µM | 0.538 µM | > 100 µM | 0.621 µM | 20.8 µM | 0.17 µM | 0.646 µM |
| CC(C)[C@](O)(c1ccc2cc(OC(F)F)c(OC(F)F)cc2c1)c1cn[nH]n1 | 16.4 µM and 14.8 µM | 36.5 µM and 35.4 µM | 20.1 µM and 21.5 µM | 52.8 µM and 53.5 µM | 17.1 µM and 16.9 µM | 30.9 µM and 30.7 µM | 24.6 µM and 17.8 µM | 70.7 µM and 44.5 µM | 21.9 µM and 15 µM | > 100 µM and 54.4 µM | 18.7 µM and 17.1 µM | 36.6 µM and 35 µM | 29.6 µM and 26.4 µM | 81.1 µM and 62.5 µM | 17.5 µM and 14.2 µM | 35.4 µM and 33.4 µM | 20.1 µM and 13 µM | 39.6 µM and 29.8 µM | 14.4 µM and 15.4 µM | 28.2 µM and 29.2 µM |
| CCOc1ccc2nc(NC(=O)C(=O)C(C(=O)c3ccccc3-c3ccccc3)C3OC(=O)c4ccccc43)sc2c1 (centres undefined) |  | 32 µM |  | 37.9 µM |  | 31.3 µM |  | > 68 µM |  | > 100 µM |  | 60.1 µM |  | 25.7 µM |  | 41.7 µM |  | 34.8 µM |  | 48.1 µM |
| C=CC(=O)Nc1ccc(Nc2nccc(-c3ccc(N4CCCC4)c(C#N)c3)n2)cc1 | 9.97 µM | > 25 µM | > 25 µM | > 25 µM | 17.9 µM | > 25 µM | 1.85 µM | > 25 µM | 20.1 µM | > 25 µM | 22.7 µM | > 25 µM | > 25 µM | > 25 µM | 20.9 µM | > 25 µM | > 25 µM | > 25 µM | 4.82 µM | 24.9 µM |
| OCCOc1ccc(-c2cc(-c3ccccn3)nc(-c3ccccn3)c2)cc1 |  | 14.1 µM |  | 2.4 µM |  | 8.54 µM |  | > 100 µM |  | > 100 µM |  | 3.48 µM |  | 2.6 µM |  | > 100 µM |  | 2.66 µM |  | 17 µM |
| CNC(=O)c1cc(COc2nnc(Nc3ccc(Cl)cc3)c3ccoc23)ccn1 | 2.85 µM and 8.83 µM | 11.9 µM and > 10 µM | 4.48 µM and > 10 µM | > 42.5 µM | 7.66 µM and 7.85 µM | > 47.1 µM | 11.4 µM and > 10 µM | 27.4 µM and > 10 µM | 2.87 µM and 3.16 µM | 11.7 µM and > 10 µM | 6.71 µM and > 10 µM | 21 µM and > 10 µM | 3.66 µM and 5.78 µM | 17.1 µM and > 10 µM | 9.39 µM and > 10 µM | > 57.7 µM | 6.3 µM and > 10 µM | 30.3 µM and > 10 µM | 6.65 µM and > 10 µM | 21.9 µM and > 10 µM |
| Cc1c2cnccc2c(C)c2c1c1cc(C3OCCCO3)ccc1n2C | 0.466 µM | 2.48 µM | 0.157 µM | 1.83 µM | 0.379 µM | 1.44 µM | 0.337 µM | 2.37 µM | 0.264 µM | 1.12 µM | 0.314 µM | 1.22 µM | 0.139 µM | 1.95 µM | 0.402 µM | 2.24 µM | 0.197 µM | 0.747 µM | 0.139 µM | 0.52 µM |
| CO[C@H](C(=O)[C@@H](O)[C@@H](C)O)[C@@H]1Cc2cc3cc(O[C@H]4C[C@@H](O[C@H]5C[C@@H](O)[C@H](O)C(C)O5)[C@H](O)C(C)O4)c(C)c(O)c3c(O)c2C(=O)[C@H]1O[C@H]1C[C@@H](O[C@H]2C[C@@H](O[C@H]3C[C@@H](OC)[C@H](O)C(C)O3)[C@@H](O)C(C)O2)C(O)(O)C(C)O1 (some centres undefined) | 0.0168 µM | 0.304 µM | > 25 µM | > 25 µM | 0.0208 µM | 0.467 µM | 0.116 µM | > 25 µM | 0.404 µM | > 11.7 µM | 0.0551 µM | 0.592 µM | 0.225 µM | > 25 µM | 0.396 µM | > 25 µM | 0.00601 µM | 0.0945 µM | 0.0198 µM | 0.115 µM |
| Cn1cc(-c2nonc2-c2c[nH]c3ccccc23)c2ccccc21 | 0.366 µM | 9.79 µM | 0.378 µM | 14 µM | 0.518 µM | 12.9 µM | 0.574 µM | 18.3 µM | 1.52 µM | 17 µM | 0.496 µM | 14.6 µM | 0.545 µM | 14.7 µM | 0.488 µM | 17.2 µM | 0.341 µM | 5.1 µM | 0.435 µM | 2.11 µM |
| NS(=O)(=O)c1ccc(NC(=O)c2ccc(NC3=C(Cl)C(=O)N(Cc4ccccc4)C3=O)cc2)cc1 | 1.91 µM | 4.78 µM | 19.6 µM | 43.3 µM | 10.9 µM | 24.1 µM | 3 µM | > 100 µM | 13.7 µM | > 100 µM |  |  | 10.2 µM | > 100 µM | 12.8 µM | 34 µM |  |  | 14.9 µM | 32.6 µM |
| Cc1cc(C)nc(NC(N)=NCCc2ccccc2)n1 | 6.02 µM | 65.9 µM | 31 µM | > 100 µM | 1.75 µM | 5.39 µM |  |  | 5.35 µM | > 100 µM | 12.6 µM | > 100 µM | 3.69 µM | 34.8 µM | 3.88 µM | > 100 µM | 2.97 µM | 21.4 µM | 5.26 µM | 39 µM |
